Test results from US7365053B2, “Selective N-acylation of A82846 glygopeptides analogs” (priority 2000, dated 2008).
Values after ≈ are worked out from the molar mass of the structure shown.

Tests used:
[1] = system: vancomycin-resistant enterococci; assay: In vitro activity against enterococci, broth microdilution; assay type: cell-based, Enterococcus faecium and Enterococcus faecalis; conditions: representative vancomycin-resistant enterococci (E. faecium and E. faecalis); BHI medium
Method: (§1) The compounds of the present invention have in vitro activity against Gram-positive pathogenic bacteria. The antibacterial activity of the present compounds is illustrated in Tables III and IV. The minimal inhibitory concentrations (MICs) were determined using a standard broth micro-dilution assay. Table IV presents a comparison of the activity of illustrative compounds against representative vancomycin-resistant and vancomycin-sensitive enterococci (Enterococcus faecium and Enterococcus faecalis), mean geometric MIC (mcg/mL), as determined by the standard broth microdilution assay.
(§2) Assays for antimicrobial activity were performed using microbroth susceptibility testing methods as described by the NCCLS (National Committee for Clinical Laboratories Standards. 1990. Approved standard M7-A2. Methods for dilution antimicrobial susceptibility testing for bacteria that grow aerobically, 2 ed., Villanova Pa.). Brain-heart infusion medium (BHI) was used for testing of enterococci, and NCCLS recommendations for medium were followed for other bacteria.

[2] = system: vancomycin-sensitive enterococci; assay: as above; assay type: cell-based, Enterococcus faecium and Enterococcus faecalis; conditions: representative vancomycin-sensitive enterococci (E. faecium and E. faecalis); BHI medium
Method: as §1, §2

[3] = system: Staphylococcus aureus 446; assay: Broth micro-dilution MIC; assay type: cell-based
Method: as §1, §2

[4] = system: Staphylococcus aureus S13E; assay: Broth micro-dilution MIC; assay type: cell-based
Method: as §1, §2

[5] = system: Enterococcus gallinarum 245; assay: Broth micro-dilution MIC; assay type: cell-based; conditions: BHI medium
Method: as §1, §2

[6] = system: Staphylococcus epidermidis 270; assay: Broth micro-dilution MIC; assay type: cell-based
Method: as §1, §2

[7] = system: Staphylococcus haemolyticus 415; assay: Broth micro-dilution MIC; assay type: cell-based
Method: as §1, §2

[8] = system: Staphylococcus aureus 489; assay: Broth micro-dilution MIC; assay type: cell-based
Method: as §1, §2

[9] = system: Staphylococcus aureus 491; assay: Broth micro-dilution MIC; assay type: cell-based
Method: as §1, §2

[10] = system: Staphylococcus aureus X778; assay: Broth micro-dilution MIC; assay type: cell-based
Method: as §1, §2

[11] = system: Streptococcus pyogenes C203; assay: Broth micro-dilution MIC; assay type: cell-based
Method: as §1, §2

[12] = system: Enterococcus faecium 180; assay: Broth micro-dilution MIC; assay type: cell-based; conditions: BHI medium
Method: as §1, §2

[13] = system: Staphylococcus aureus X400; assay: Broth micro-dilution MIC; assay type: cell-based
Method: as §1, §2

[14] = system: Staphylococcus haemolyticus 105; assay: Broth micro-dilution MIC; assay type: cell-based
Method: as §1, §2

[15] = system: Enterococcus faecalis 2041; assay: Broth micro-dilution MIC; assay type: cell-based; conditions: BHI medium
Method: as §1, §2

[16] = system: Haemophilus influenzae RD; assay: Broth micro-dilution MIC; assay type: cell-based
Method: as §1, §2

[17] = system: Streptococcus pneumoniae P1; assay: Broth micro-dilution MIC; assay type: cell-based
Method: as §1, §2

[18] = system: Staphylococcus aureus 447; assay: Broth micro-dilution MIC; assay type: cell-based
Method: as §1, §2

[19] = system: Staphylococcus aureus SA1199B; assay: Broth micro-dilution MIC; assay type: cell-based
Method: as §1, §2

[20] = system: Staphylococcus aureus SA1199; assay: Broth micro-dilution MIC; assay type: cell-based
Method: as §1, §2

[21] = system: Enterococcus faecalis 276; assay: Broth micro-dilution MIC; assay type: cell-based; conditions: BHI medium
Method: as §1, §2

[22] = system: Staphylococcus aureus SA1199A; assay: Broth micro-dilution MIC; assay type: cell-based
Method: as §1, §2

[23] = system: Enterococcus faecium 180-1; assay: Broth micro-dilution MIC; assay type: cell-based; conditions: BHI medium
Method: as §1, §2

[24] = system: Escherichia coli EC14; assay: Broth micro-dilution MIC; assay type: cell-based
Method: as §1, §2

Structure (SMILES)	Mean geometric MIC, Vancomycin Resistant Strains [1] [µg/mL]	Mean geometric MIC, Vancomycin Sensitive Strains [2] [µg/mL]	MIC [3] [µg/mL]	MIC [4] [µg/mL]	MIC [5] [µg/mL]	MIC [6] [µg/mL]	MIC [7] [µg/mL]	MIC [8]	MIC [9]	MIC [10] [µg/mL]	MIC [11]	MIC [12]	MIC [13]	MIC [14] [µg/mL]	MIC [15]	MIC [16] [µg/mL]	MIC [17]	MIC [18] [µg/mL]	MIC [19] [µg/mL]	MIC [20] [µg/mL]	further results
CNC(CC(C)C)C(=O)NC1C(=O)NC(CC(N)=O)C(=O)NC2C(=O)NC3C(=O)NC(C(=O)NC(C(=O)O)c4cc(O)cc(O)c4-c4cc3ccc4O)C(OC3CC(C)(NC(=O)c4ccc(-c5ccccc5)cc4)C(O)C(C)O3)c3ccc(c(Cl)c3)Oc3cc2cc(c3OC2OC(CO)C(O)C(O)C2OC2CC(C)(N)C(O)C(C)O2)Oc2ccc(cc2Cl)C1O (stereo not drawn) [Example 2]	>25	0.38	8 (≈ 4.51 µM)	4 (≈ 2.26 µM)	>64	32 (≈ 18.1 µM)	>64	0.5 µg/mL (≈ 0.282 µM)	1 µg/mL (≈ 0.564 µM)	2 (≈ 1.13 µM)	≦.06 μg/ml	32 µg/mL (≈ 18.1 µM)	2 µg/mL (≈ 1.13 µM)	2 (≈ 1.13 µM)	1 µg/mL (≈ 0.564 µM)	>64	≦.06 μg/ml	32 (≈ 18.1 µM)	2 (≈ 1.13 µM)	4 (≈ 2.26 µM)	MIC [21]: 1 µg/mL (≈ 0.564 µM); MIC [22]: 1 µg/mL (≈ 0.564 µM); MIC [23]: 1 µg/mL (≈ 0.564 µM); MIC [24]: >64 µg/mL
CC(C)CC(C(=O)NC1C(=O)NC(CC(N)=O)C(=O)NC2C(=O)NC3C(=O)NC(C(=O)NC(C(=O)O)c4cc(O)cc(O)c4-c4cc3ccc4O)C(OC3CC(C)(N)C(O)C(C)O3)c3ccc(c(Cl)c3)Oc3cc2cc(c3OC2OC(CO)C(O)C(O)C2OC2CC(C)(N)C(O)C(C)O2)Oc2ccc(cc2Cl)C1O)N(C)C(=O)c1ccc(-c2ccccc2)cc1 (stereo not drawn) [Example 3]	4	0.19	0.5 (≈ 0.282 µM)	0.25 (≈ 0.141 µM)	2 (≈ 1.13 µM)	2 (≈ 1.13 µM)	2 (≈ 1.13 µM)	0.5 µg/mL (≈ 0.282 µM)	0.5 µg/mL (≈ 0.282 µM)	1 (≈ 0.564 µM)	≦.06 μg/ml	0.25 µg/mL (≈ 0.141 µM)	0.5 µg/mL (≈ 0.282 µM)	4 (≈ 2.26 µM)	≦.06 μg/ml	>64	≦.06 μg/ml	16 (≈ 9.03 µM)	2 (≈ 1.13 µM)	1 (≈ 0.564 µM)	MIC [21]: 0.125 µg/mL (≈ 0.0705 µM); MIC [22]: 1 µg/mL (≈ 0.564 µM); MIC [23]: ≦.06 μg/ml; MIC [24]: >64 µg/mL
CNC(CC(C)C)C(=O)NC1C(=O)NC(CC(N)=O)C(=O)NC2C(=O)NC3C(=O)NC(C(=O)NC(C(=O)O)c4cc(O)cc(O)c4-c4cc3ccc4O)C(OC3CC(C)(N)C(O)C(C)O3)c3ccc(c(Cl)c3)Oc3cc2cc(c3OC2OC(CO)C(O)C(O)C2OC2CC(C)(NC(=O)c3ccc(-c4ccc(Cl)cc4)cc3)C(O)C(C)O2)Oc2ccc(cc2Cl)C1O (stereo not drawn) [Example 4]	3.4	0.093	1 (≈ 0.553 µM)	0.5 (≈ 0.277 µM)	4 (≈ 2.21 µM)	2 (≈ 1.11 µM)	4 (≈ 2.21 µM)	0.25 µg/mL (≈ 0.138 µM)	0.5 µg/mL (≈ 0.277 µM)	0.25 (≈ 0.138 µM)	0.125 µg/mL (≈ 0.0692 µM)	≦.06 μg/ml	0.25 µg/mL (≈ 0.138 µM)	1 (≈ 0.553 µM)	≦.06 μg/ml	0.25 (≈ 0.138 µM)	0.125 µg/mL (≈ 0.0692 µM)	4 (≈ 2.21 µM)	0.5 (≈ 0.277 µM)	0.5 (≈ 0.277 µM)	MIC [21]: 0.125 µg/mL (≈ 0.0692 µM); MIC [22]: 0.25 µg/mL (≈ 0.138 µM); MIC [23]: ≦.06 μg/ml; MIC [24]: >64 µg/mL
CNC(CC(C)C)C(=O)NC1C(=O)NC(CC(N)=O)C(=O)NC2C(=O)NC3C(=O)NC(C(=O)NC(C(=O)O)c4cc(O)cc(O)c4-c4cc3ccc4O)C(OC3CC(C)(NC(=O)c4ccc(-c5ccc(Cl)cc5)cc4)C(O)C(C)O3)c3ccc(c(Cl)c3)Oc3cc2cc(c3OC2OC(CO)C(O)C(O)C2OC2CC(C)(N)C(O)C(C)O2)Oc2ccc(cc2Cl)C1O (stereo not drawn) [Example 5]	19	0.29	0.5 (≈ 0.277 µM)	0.5 (≈ 0.277 µM)	8 (≈ 4.43 µM)	4 (≈ 2.21 µM)	8 (≈ 4.43 µM)	≦.06 μg/ml	≦.06 μg/ml	0.5 (≈ 0.277 µM)	≦.06 μg/ml	1 µg/mL (≈ 0.553 µM)	≦.06 μg/ml	0.5 (≈ 0.277 µM)	≦.06 μg/ml	>64	≦.06 μg/ml	2 (≈ 1.11 µM)	0.25 (≈ 0.138 µM)	0.5 (≈ 0.277 µM)	MIC [21]: ≦.06 μg/ml; MIC [22]: ≦.06 μg/ml; MIC [23]: ≦.06 μg/ml; MIC [24]: >64 µg/mL
CCCCCCCCOc1ccc(C(=O)NC2(C)CC(OC3C(Oc4c5cc6cc4Oc4ccc(cc4Cl)C(OC4CC(C)(N)C(O)C(C)O4)C4NC(=O)C(NC(=O)C6NC(=O)C(CC(N)=O)NC(=O)C(NC(=O)C(CC(C)C)NC)C(O)c6ccc(c(Cl)c6)O5)c5ccc(O)c(c5)-c5c(O)cc(O)cc5C(C(=O)O)NC4=O)OC(CO)C(O)C3O)OC(C)C2O)cc1 (stereo not drawn) [Example 6]	11.3	1.2	2 (≈ 1.1 µM)	8 (≈ 4.38 µM)	8 (≈ 4.38 µM)	8 (≈ 4.38 µM)	8 (≈ 4.38 µM)	1 µg/mL (≈ 0.548 µM)	2 µg/mL (≈ 1.1 µM)	2 (≈ 1.1 µM)	0.125 µg/mL (≈ 0.0685 µM)	0.25 µg/mL (≈ 0.137 µM)	4 µg/mL (≈ 2.19 µM)	0.5 (≈ 0.274 µM)	0.25 µg/mL (≈ 0.137 µM)	>64	0.25 µg/mL (≈ 0.137 µM)	8 (≈ 4.38 µM)	2 (≈ 1.1 µM)	4 (≈ 2.19 µM)	MIC [21]: 1 µg/mL (≈ 0.548 µM); MIC [22]: 0.25 µg/mL (≈ 0.137 µM); MIC [23]: 0.125 µg/mL (≈ 0.0685 µM); MIC [24]: >64 µg/mL
